# In patent publication US9056844B2, “4-substituted-3-benzyloxy-bicyclo[3.1.0]hexane compounds as mGluR 2/3 antagonists” (Eli Lilly and Company, priority 2010, dated 2015):
# Experiments:
# [1] = biological target: serotonin receptor 5-HT2B (Homo sapiens, UniProt P41595); test: Off-target activity, known assay methods: 5-HT2B
# From the text: (§1) Further, certain compounds of the present invention show a lack of significant activity at other physiologically important receptors such as, but not limited to, the hERG channel, serotonin receptors (specifically 5-HT2A and 5-HT2B), muscarinic receptors (specifically M2), and iGluR receptors (specifically iGluR5).
# mGlu2+/+ mice = test: mFST in mGlu2+/+ littermate mice; type: in vivo, mouse; conditions: 10 mg/kg, i.p., 30 min prior
# muscarinic receptor M2 = biological target: T1, muscarinic receptor M2 (Homo sapiens, UniProt P08172); test: Off-target activity, known assay methods: M2
# T1 sequence (P08172 1-466): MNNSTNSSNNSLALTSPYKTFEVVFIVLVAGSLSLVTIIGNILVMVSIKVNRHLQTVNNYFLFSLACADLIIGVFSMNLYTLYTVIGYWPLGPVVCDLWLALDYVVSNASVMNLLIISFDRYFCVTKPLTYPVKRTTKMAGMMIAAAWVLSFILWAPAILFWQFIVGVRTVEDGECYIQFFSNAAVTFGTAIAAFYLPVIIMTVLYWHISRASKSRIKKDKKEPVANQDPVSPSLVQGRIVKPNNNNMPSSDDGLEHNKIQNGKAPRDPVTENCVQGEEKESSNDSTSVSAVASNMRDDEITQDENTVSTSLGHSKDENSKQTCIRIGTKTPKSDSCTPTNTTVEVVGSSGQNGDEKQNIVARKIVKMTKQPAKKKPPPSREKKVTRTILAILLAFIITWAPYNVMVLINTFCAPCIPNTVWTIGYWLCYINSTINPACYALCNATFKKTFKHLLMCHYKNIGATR
# From the text: as §1
# [2] = biological target: serotonin receptor 5-HT2A (Homo sapiens, UniProt P28223); test: Off-target activity, known assay methods: 5-HT2A
# Sequence of serotonin receptor 5-HT2A (P28223 whole entry): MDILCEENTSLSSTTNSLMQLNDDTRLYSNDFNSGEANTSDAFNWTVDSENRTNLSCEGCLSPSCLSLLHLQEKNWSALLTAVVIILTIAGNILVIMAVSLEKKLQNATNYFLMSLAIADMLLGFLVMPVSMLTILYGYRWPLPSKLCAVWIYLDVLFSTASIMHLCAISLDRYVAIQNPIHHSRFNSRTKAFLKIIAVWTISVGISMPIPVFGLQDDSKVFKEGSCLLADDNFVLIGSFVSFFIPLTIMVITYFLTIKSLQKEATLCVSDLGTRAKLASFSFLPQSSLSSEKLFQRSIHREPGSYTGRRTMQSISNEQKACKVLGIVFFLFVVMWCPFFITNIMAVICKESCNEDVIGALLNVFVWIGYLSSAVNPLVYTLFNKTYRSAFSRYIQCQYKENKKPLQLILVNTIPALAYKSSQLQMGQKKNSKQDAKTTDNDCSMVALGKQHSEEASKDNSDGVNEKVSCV
# From the text: as §1
# iGluR5 = iGluR5 (Homo sapiens, UniProt P39086); test: Off-target activity, known assay methods: iGluR5
# Sequence of iGluR5 (P39086 31-918): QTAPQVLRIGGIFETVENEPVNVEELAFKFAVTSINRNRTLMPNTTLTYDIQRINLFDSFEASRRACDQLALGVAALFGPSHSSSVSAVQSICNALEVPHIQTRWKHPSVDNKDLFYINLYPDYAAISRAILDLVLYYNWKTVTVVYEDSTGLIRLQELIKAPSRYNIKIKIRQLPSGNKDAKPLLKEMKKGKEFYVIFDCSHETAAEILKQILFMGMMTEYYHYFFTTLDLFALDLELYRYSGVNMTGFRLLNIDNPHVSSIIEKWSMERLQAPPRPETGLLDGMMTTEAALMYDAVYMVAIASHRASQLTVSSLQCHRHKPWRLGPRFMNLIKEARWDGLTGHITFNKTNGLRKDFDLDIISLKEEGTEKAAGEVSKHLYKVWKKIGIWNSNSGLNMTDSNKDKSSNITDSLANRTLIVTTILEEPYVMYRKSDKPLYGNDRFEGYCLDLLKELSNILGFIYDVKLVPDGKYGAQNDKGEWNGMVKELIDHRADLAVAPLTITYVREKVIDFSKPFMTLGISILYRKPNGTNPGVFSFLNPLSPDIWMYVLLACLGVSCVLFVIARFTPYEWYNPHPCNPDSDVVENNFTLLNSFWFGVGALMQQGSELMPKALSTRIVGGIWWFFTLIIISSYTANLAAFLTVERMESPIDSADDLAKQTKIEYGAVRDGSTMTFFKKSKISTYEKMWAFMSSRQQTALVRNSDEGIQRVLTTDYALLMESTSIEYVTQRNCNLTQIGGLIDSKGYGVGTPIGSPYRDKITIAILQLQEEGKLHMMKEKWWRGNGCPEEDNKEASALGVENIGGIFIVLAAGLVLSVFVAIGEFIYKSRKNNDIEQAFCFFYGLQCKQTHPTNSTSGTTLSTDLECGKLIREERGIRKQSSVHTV
# From the text: as §1
# hERG channel = hERG channel (Homo sapiens, UniProt Q12809); test: Off-target activity, known assay methods: hERG
# Sequence of hERG channel (Q12809 whole entry): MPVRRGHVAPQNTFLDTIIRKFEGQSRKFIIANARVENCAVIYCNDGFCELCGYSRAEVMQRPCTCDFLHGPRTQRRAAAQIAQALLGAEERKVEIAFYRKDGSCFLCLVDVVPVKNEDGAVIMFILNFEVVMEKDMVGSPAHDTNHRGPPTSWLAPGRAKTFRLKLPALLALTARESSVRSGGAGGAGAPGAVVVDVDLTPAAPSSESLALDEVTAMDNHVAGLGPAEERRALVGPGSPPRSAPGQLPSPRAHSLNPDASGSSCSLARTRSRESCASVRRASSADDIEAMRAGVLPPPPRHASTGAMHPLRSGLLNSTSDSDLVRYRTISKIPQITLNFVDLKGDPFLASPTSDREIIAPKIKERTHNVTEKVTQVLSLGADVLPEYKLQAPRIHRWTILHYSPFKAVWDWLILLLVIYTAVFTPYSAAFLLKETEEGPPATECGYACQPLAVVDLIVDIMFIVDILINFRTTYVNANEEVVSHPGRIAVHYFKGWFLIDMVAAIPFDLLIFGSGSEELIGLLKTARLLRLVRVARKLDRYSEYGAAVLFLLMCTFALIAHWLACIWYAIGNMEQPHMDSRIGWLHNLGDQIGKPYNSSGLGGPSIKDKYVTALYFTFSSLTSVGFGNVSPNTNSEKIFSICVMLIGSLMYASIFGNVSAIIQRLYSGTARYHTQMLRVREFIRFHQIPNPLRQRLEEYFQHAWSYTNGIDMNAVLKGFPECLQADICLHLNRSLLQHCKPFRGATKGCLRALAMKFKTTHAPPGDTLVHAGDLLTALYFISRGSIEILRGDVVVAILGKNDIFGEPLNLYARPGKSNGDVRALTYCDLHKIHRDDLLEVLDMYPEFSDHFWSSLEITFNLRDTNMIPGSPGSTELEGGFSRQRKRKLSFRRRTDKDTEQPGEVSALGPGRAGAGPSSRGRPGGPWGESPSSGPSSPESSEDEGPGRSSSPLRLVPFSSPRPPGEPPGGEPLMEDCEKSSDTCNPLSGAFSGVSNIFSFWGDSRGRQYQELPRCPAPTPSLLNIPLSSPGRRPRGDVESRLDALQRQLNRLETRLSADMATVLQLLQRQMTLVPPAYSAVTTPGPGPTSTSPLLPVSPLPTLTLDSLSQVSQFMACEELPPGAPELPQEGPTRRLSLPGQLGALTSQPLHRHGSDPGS
# From the text: as §1
# Sequence of serotonin receptor 5-HT2B (P41595 whole entry): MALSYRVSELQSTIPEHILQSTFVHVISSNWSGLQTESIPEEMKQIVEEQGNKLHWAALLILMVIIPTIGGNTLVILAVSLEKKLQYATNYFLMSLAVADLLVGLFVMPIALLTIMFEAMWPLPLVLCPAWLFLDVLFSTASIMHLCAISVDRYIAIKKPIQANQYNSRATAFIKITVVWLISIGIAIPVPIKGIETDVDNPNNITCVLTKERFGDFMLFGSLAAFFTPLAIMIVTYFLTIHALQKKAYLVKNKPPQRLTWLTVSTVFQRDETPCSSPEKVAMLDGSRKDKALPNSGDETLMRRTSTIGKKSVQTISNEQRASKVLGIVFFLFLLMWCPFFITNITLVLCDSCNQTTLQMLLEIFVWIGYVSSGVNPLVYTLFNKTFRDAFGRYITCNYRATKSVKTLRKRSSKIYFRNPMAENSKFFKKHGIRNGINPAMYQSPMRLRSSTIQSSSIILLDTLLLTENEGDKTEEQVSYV
smiles,measurement,setting,value
"N[C@]1(C(=O)O)[C@@H]2[C@@H](C(=O)O)[C@@H]2[C@H](O)[C@H]1OCc1ccc(Cl)c(Cl)c1 [Example 1, (1S,2R,3S,4S,5R,6R)-2-Amino-3-[(3,4-dichlorobenzyl)oxy]-4-hydroxybicyclo[3.1.0]hexane-2,6-dicarboxylic acid]",activity at 5-HT2B,[1],no appreciable activity
same,immobility time,mGlu2+/+ mice,significantly decrease immobility time
same,activity at M2,muscarinic receptor M2,no appreciable activity
same,activity at 5-HT2A,[2],no appreciable activity
same,activity at iGluR5,iGluR5,no appreciable activity
same,activity at the hERG channel,hERG channel,no appreciable activity
